Experiments:
NHE3 = test system: T1, NHE3; assay: Sodium excretion in urine after oral NaH2PO4 bolus in mice; type: in vivo; conditions: sodium bolus plus 3 mg/kg po, urine 4 h, mean ± SEM
T1 construct: from tissue; host or cells: intestine of living C57Bl/6 mice
Experimental: The effect of LY3304000 on sodium and phosphate excretion in urine was also assessed in mice. A dosing solution of 3 mg/kg LY3304000 for a 10 mL/kg dose volume was formulated in 1% HEC. An NaH2PO4 dosing solution at a 690 mg/kg with a […] dosing volume was made in sterile water. Male C57Bl/6 mice were fasted for 4 hours with access to water and then orally dosed at 10 mL/kg with 1% HEC vehicle or 3 mg/kg LY3304000. Fifteen minutes later, mice were orally dosed with either sterile water or NaH2PO4 solution, and then immediately transferred to a mouse holder on a 96-well plate for spot urine collection. Urine samples were collected for 4 hours post sterile water or NaH2PO4 dose. Urinary sodium, creatinine, and phosphorus (as a measure of phosphate) were determined using a clinical biochemistry analyzer. The urinary sodium-to-creatinine ratio was calculated and compared between vehicle and LY3304000 treated groups.

[1] = Pharmacokinetics study after oral dosing; type: in vivo, rats
Experimental: Following oral dosing of the free base from of LY3304000 in a vehicle of 1% Hydroxyethylcellulose, 0.25% Polysorbate 80, and 0.05% Antifoam in purified water, the level of LY3304000 in rat blood 2.5-hour post dose was below the limit of quantification of LY330400 (0.815 nM with LC/MS method). Further characterization of the pharmacokinetic properties of LY3304000 was hampered by an inability to identify an appropriate vehicle for IV dosing.

detection in plasma following oral dosing ([1]; oral dosing): could not be detected | concentration at 2.5 h ([1]; rat, whole blood, oral, free base, 2.5-hour post dose, below limit of quantification (LC/MS), read-out: level in rat blood): < 0.815 nM
Structure (SMILES): CN1Cc2c(Cl)cc(Cl)cc2[C@H](c2cccc(S(=O)(=O)NCCOCCOCCN/C(=N\C(N)=O)NCCCCN/C(=N/C(N)=O)NCCOCCOCCNS(=O)(=O)c3cccc([C@@H]4CN(C)Cc5c(Cl)cc(Cl)cc54)c3)c2)C1.Cl.Cl [LY3304000, (Z)-[[4-[[(Z)-N’-carbamoyl-N-[2-[2-[2-[[3-[(4S)-6,8-dichloro-2-methyl-3,4-dihydro-1H-isoquinolin-4-yl]phenyl]sulfonylamino]ethoxy]ethoxy]ethyl]carbamimidoyl]amino]butylamino]-[2-[2-[2-[[3-[(4S)-6,8-dichloro-2-methyl-3,4-dihydro-1H-isoquinolin-4-yl]phenyl]sulfonylamino]ethoxy]ethoxy]ethylamino]methylene]urea dihydrochloride]
Urinary sodium-to-creatinine ratio (NHE3): 14.6 ± 1.7 mg/mg
